Reference: ChEMBL document CHEMBL1201862, “PubChem BioAssay data set” (2004)
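Results reflect a 48-hour exposure of cells in 96-well plates to compound at five concentrations. GI50 is the concentration that inhibits growth by half.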 Calls of active or inactive are those of the source. No stated cut-off is given here; in the data, active = GI50 up to about 1.1 µM and inactive = higher.

Key:
Test in all cases: NCI anticancer screen, dose series, 48 h
786-0 = tested on: 786-0
HCC 2998 = tested on: HCC 2998
HCT-116 = tested on: HCT-116
HCT-15 = tested on: HCT-15
HT-29 = tested on: HT-29
Hs-578T = tested on: Hs-578T
IGROV-1 = tested on: IGROV-1
MDA-MB-231 = tested on: MDA-MB-231
MDA-MB-435 = tested on: MDA-MB-435
MDA-N = tested on: MDA-N
MOLT-4 = tested on: MOLT-4
NCI-H522 = tested on: NCI-H522
OVCAR-3 = tested on: OVCAR-3
SK-MEL-5 = tested on: SK-MEL-5
SNB-19 = tested on: SNB-19
SR = tested on: SR
U-251 = tested on: U-251
UACC-62 = tested on: UACC-62
HOP-18 = tested on: HOP-18
DMS-114 = tested on: DMS-114

| Structure (SMILES) | GI50 (786-0) | GI50 (HCC 2998) | GI50 (HCT-116) | GI50 (HCT-15) [µM] | GI50 (HT-29) | GI50 (Hs-578T) | GI50 (IGROV-1) | GI50 (MDA-MB-231) | GI50 (MDA-MB-435) | GI50 (MDA-N) | GI50 (MOLT-4) | GI50 (NCI-H522) | GI50 (OVCAR-3) | GI50 (SK-MEL-5) | GI50 (SNB-19) | GI50 (SR) | GI50 (U-251) | GI50 (UACC-62) | GI50 (HOP-18) | GI50 (DMS-114) |
| --- | --- | --- | --- | --- | --- | --- | --- | --- | --- | --- | --- | --- | --- | --- | --- | --- | --- | --- | --- | --- |
| CC(C)(C)c1c2c(c(C(C)(C)C)c3c1OCN(Cc1ccccc1)C3)OCN(Cc1ccccc1)C2 | 12.9 µM (inactive) | 10.5 µM (inactive) | 11.3 µM (inactive) | 16.5 | 16.7 µM (inactive) | 20.4 µM (inactive) | 21 µM (inactive) | 15.5 µM (inactive) | 28.5 µM (inactive) | 11.7 µM (inactive) | 18.2 µM (inactive) | 10.9 µM (inactive) | 14 µM (inactive) | 8.87 µM (inactive) | 11 µM (inactive) | 18.9 µM (inactive) | 14.8 µM (inactive) | 17.7 µM (inactive) | – | – |
| CC(=O)CC[N+](C)(C)C | 23.6 µM (inactive) | 52.5 µM (inactive) | 25.2 µM (inactive) | 22.7 | 32.7 µM (inactive) | 12.6 µM (inactive) | 37.3 µM (inactive) | 21.3 µM (inactive) | 37.8 µM (inactive) | 40.7 µM (inactive) | 6.15 µM (inactive) | 0.929 µM (active) | 37.3 µM (inactive) | 30.3 µM (inactive) | 22.7 µM (inactive) | 7.85 µM (inactive) | 34.6 µM (inactive) | 26.8 µM (inactive) | 13.9 µM (inactive) | – |
| CCCCCCCCCCCCCCCCNc1cccc2ccccc12 | > 100 µM (inactive) | > 100 µM (inactive) | > 100 µM (inactive) | > 100 | – | – | > 100 µM (inactive) | – | – | – | > 100 µM (inactive) | > 100 µM (inactive) | > 100 µM (inactive) | – | > 100 µM (inactive) | > 100 µM (inactive) | > 100 µM (inactive) | > 100 µM (inactive) | – | > 100 µM (inactive) |
| CCOC(=O)C1=C(C)C2C3C(=O)OC(=O)C3C1(C)C1C(=O)OC(=O)C21 (stereo not given) | > 100 µM (inactive) | > 100 µM (inactive) | > 100 µM (inactive) | > 100 | > 100 µM (inactive) | – | > 100 µM (inactive) | – | – | – | > 100 µM (inactive) | – | > 100 µM (inactive) | > 100 µM (inactive) | > 100 µM (inactive) | – | > 100 µM (inactive) | > 100 µM (inactive) | – | > 100 µM (inactive) |
| CC(=O)N/C(=C\c1ccc(/C=C(\NC(C)=O)c2nc3cc(Cl)ccc3[nH]2)cc1)c1nc2ccccc2[nH]1 | > 100 µM (inactive) | – | > 100 µM (inactive) | > 100 | > 100 µM (inactive) | – | > 100 µM (inactive) | – | – | – | > 100 µM (inactive) | > 100 µM (inactive) | > 100 µM (inactive) | > 100 µM (inactive) | > 100 µM (inactive) | > 100 µM (inactive) | > 100 µM (inactive) | > 100 µM (inactive) | – | > 100 µM (inactive) |
| Clc1cccc(C2N3CCCCC3[C@@H]3c4[nH]c5ccccc5c4CCN23)c1 (stereo not given in full) | 32.6 µM (inactive) | 31.9 µM (inactive) | 17.1 µM (inactive) | 48.2 | 18.2 µM (inactive) | – | 50.8 µM (inactive) | – | – | – | 23.1 µM (inactive) | – | 34.8 µM (inactive) | 18 µM (inactive) | 55 µM (inactive) | – | 29.2 µM (inactive) | 15.6 µM (inactive) | > 100 µM (inactive) | 20.6 µM (inactive) |
| CCOC(=O)N1CC2(C)C=CC1C(C(=O)OC)C2 (stereo not given) | > 100 µM (inactive) | > 100 µM (inactive) | > 100 µM (inactive) | > 100 | > 100 µM (inactive) | > 100 µM (inactive) | > 100 µM (inactive) | > 100 µM (inactive) | > 100 µM (inactive) | > 100 µM (inactive) | > 100 µM (inactive) | > 100 µM (inactive) | > 100 µM (inactive) | > 100 µM (inactive) | > 100 µM (inactive) | > 100 µM (inactive) | > 100 µM (inactive) | > 100 µM (inactive) | – | – |
| CN(CCN(C)C(=O)CCn1ccc(=O)[nH]c1=O)C(=O)CCn1ccc(=O)[nH]c1=O | > 100 µM (inactive) | > 100 µM (inactive) | > 100 µM (inactive) | > 100 | > 100 µM (inactive) | – | > 100 µM (inactive) | – | – | – | > 100 µM (inactive) | > 100 µM (inactive) | > 100 µM (inactive) | > 100 µM (inactive) | > 100 µM (inactive) | > 100 µM (inactive) | > 100 µM (inactive) | > 100 µM (inactive) | – | > 100 µM (inactive) |
| N#C/C(=C1\SC(/N=N/c2ccccc2)C(=O)N1c1ccccc1)c1nc2ccccc2[nH]1 (stereo not given) | 7.35 µM (inactive) | – | > 100 µM (inactive) | > 100 | > 100 µM (inactive) | – | 20.5 µM (inactive) | – | – | – | 26.1 µM (inactive) | > 100 µM (inactive) | 68.1 µM (inactive) | 57 µM (inactive) | > 100 µM (inactive) | – | 54.2 µM (inactive) | > 100 µM (inactive) | – | > 100 µM (inactive) |
| Fc1ccc(/N=C2C=C/C(=N\c3ccc(F)cc3)c3ccccc3\2)cc1 | > 100 µM (inactive) | > 100 µM (inactive) | > 100 µM (inactive) | > 100 | > 100 µM (inactive) | – | > 100 µM (inactive) | – | – | – | > 100 µM (inactive) | > 100 µM (inactive) | > 100 µM (inactive) | > 100 µM (inactive) | 70.5 µM (inactive) | > 100 µM (inactive) | > 100 µM (inactive) | 9.89 µM (inactive) | > 100 µM (inactive) | – |
| O=C(CC1(O)C(=O)Nc2ccc([N+](=O)[O-])cc21)c1ccc2ccccc2c1 (stereo not given) | > 100 µM (inactive) | > 100 µM (inactive) | > 100 µM (inactive) | > 100 | > 100 µM (inactive) | – | > 100 µM (inactive) | – | – | – | > 100 µM (inactive) | 65.6 µM (inactive) | > 100 µM (inactive) | – | > 100 µM (inactive) | > 100 µM (inactive) | > 100 µM (inactive) | > 100 µM (inactive) | – | > 100 µM (inactive) |
| CCO/N=C(/N)c1ncn(Cc2ccccc2)c1NCC(OCC)OCC | > 100 µM (inactive) | > 100 µM (inactive) | > 100 µM (inactive) | > 100 | > 100 µM (inactive) | – | > 100 µM (inactive) | – | – | – | > 100 µM (inactive) | > 100 µM (inactive) | > 100 µM (inactive) | > 100 µM (inactive) | > 100 µM (inactive) | – | > 100 µM (inactive) | > 100 µM (inactive) | – | > 100 µM (inactive) |
| O=C(O)C(Cc1ccccc1)N1C(=O)N/C(=C\c2ccc(F)cc2)C1=O (stereo not given) | > 100 µM (inactive) | > 100 µM (inactive) | > 100 µM (inactive) | > 100 | > 100 µM (inactive) | – | > 100 µM (inactive) | – | – | – | > 100 µM (inactive) | > 100 µM (inactive) | – | > 100 µM (inactive) | – | > 100 µM (inactive) | > 100 µM (inactive) | 36.7 µM (inactive) | > 100 µM (inactive) | – |
| CN(C)CC[N+](C)(C)[BH2-]C(O)O | > 100 µM (inactive) | > 100 µM (inactive) | > 100 µM (inactive) | > 100 | > 100 µM (inactive) | > 100 µM (inactive) | > 100 µM (inactive) | > 100 µM (inactive) | > 100 µM (inactive) | > 100 µM (inactive) | > 100 µM (inactive) | > 100 µM (inactive) | > 100 µM (inactive) | > 100 µM (inactive) | > 100 µM (inactive) | > 100 µM (inactive) | > 100 µM (inactive) | > 100 µM (inactive) | – | – |
| CC1OC(=O)N2CCC=CC12 (stereo not given) | > 100 µM (inactive) | – | > 100 µM (inactive) | > 100 | > 100 µM (inactive) | – | > 100 µM (inactive) | – | – | – | > 100 µM (inactive) | > 100 µM (inactive) | > 100 µM (inactive) | > 100 µM (inactive) | > 100 µM (inactive) | – | > 100 µM (inactive) | > 100 µM (inactive) | > 100 µM (inactive) | > 100 µM (inactive) |
| COC(=O)C1C2C=CC(C2)N1[C@@H](C)c1ccccc1 (stereo not given in full) | > 100 µM (inactive) | > 100 µM (inactive) | > 100 µM (inactive) | > 100 | > 100 µM (inactive) | – | > 100 µM (inactive) | – | – | – | – | > 100 µM (inactive) | > 100 µM (inactive) | > 100 µM (inactive) | > 100 µM (inactive) | > 100 µM (inactive) | > 100 µM (inactive) | > 100 µM (inactive) | > 100 µM (inactive) | – |
| COc1cc(/C=C2/C(=O)N(C(=O)c3ccccc3O)N=C2C)ccc1O | 0.421 µM (active) | 4.65 µM (inactive) | 0.0957 µM (active) | 0.406 | 9.55 µM (inactive) | 0.272 µM (active) | 0.123 µM (active) | > 100 µM (inactive) | 0.409 µM (active) | 0.385 µM (active) | – | 0.593 µM (active) | 0.4 µM (active) | 0.274 µM (active) | 0.123 µM (active) | 0.206 µM (active) | 0.144 µM (active) | 0.0518 µM (active) | – | 0.171 µM (active) |
| C[C@@H]1C[C@@H]2OC(=O)[C@]3(C)[C@H]2[C@@H](OC3(C)O)[C@]2(C)C(=O)C=C[C@@H]12 (stereo not given in full) [TENULIN] | 31.1 µM (inactive) | 17.2 µM (inactive) | 16.6 µM (inactive) | 10.1 | 15.2 µM (inactive) | 51.6 µM (inactive) | > 10 µM (inactive) | 25 µM (inactive) | 24.2 µM (inactive) | 17.5 µM (inactive) | 16.4 µM (inactive) | 6.67 µM (inactive) | 20.6 µM (inactive) | 20.2 µM (inactive) | 41.4 µM (inactive) | 5.18 µM (inactive) | 40.3 µM (inactive) | 16.8 µM (inactive) | – | – |
